The values below come from BindingDB's records for doi:10.1021/jm970446z (National Institute of Diabetes, 1998).

Sequence of Adenosine receptor A2a (P30543 whole entry): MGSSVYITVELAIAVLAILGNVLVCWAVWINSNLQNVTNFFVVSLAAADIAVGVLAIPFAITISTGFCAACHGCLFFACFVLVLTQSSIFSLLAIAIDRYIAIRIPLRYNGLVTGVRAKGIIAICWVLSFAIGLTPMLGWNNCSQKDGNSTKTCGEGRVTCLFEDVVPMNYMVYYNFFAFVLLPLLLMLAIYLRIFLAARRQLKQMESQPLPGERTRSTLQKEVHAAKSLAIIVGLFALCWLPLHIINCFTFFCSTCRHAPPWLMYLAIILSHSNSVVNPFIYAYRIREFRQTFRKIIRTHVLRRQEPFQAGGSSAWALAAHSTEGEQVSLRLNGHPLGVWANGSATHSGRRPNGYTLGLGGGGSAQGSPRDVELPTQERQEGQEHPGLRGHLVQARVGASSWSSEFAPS

The first experiment concerns the target T1, Adenosine receptor A3 (Homo sapiens, UniProt P0DMS8).
T1 sequence (P0DMS8 whole entry): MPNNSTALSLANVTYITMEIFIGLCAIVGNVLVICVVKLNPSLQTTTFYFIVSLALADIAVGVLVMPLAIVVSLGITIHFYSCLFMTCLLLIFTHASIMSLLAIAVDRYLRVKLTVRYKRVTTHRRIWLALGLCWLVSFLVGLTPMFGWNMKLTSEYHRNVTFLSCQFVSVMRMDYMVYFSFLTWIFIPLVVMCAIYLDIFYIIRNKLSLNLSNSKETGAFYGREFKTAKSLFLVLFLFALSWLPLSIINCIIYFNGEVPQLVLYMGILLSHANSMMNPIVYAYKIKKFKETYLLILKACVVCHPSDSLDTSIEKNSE
Briefly: Ability to displace [125I]-AB-MECA binding from adenosine A3 receptor.
For `O=C1C[C@@H](c2ccc(O)cc2)Oc2ccccc21` [2-(4-hydroxyphenyl)-2,3-dihydro-4H-chromen-4-one], the Ki (commonly a dissociation constant, usually derived from enzyme kinetics or from competition with a known ligand) came to 22.9 µM.
For the molecule `CCOc1c(-c2c(C)cc(C)cc2C)oc2ccc(Cl)cc2c1=O`, the affinity corresponds to a Ki of 0.191 µM. This Ki is about 120-fold lower than that of the molecule before.
As to `COc1cc2oc(-c3ccc(O)cc3)cc(=O)c2c(O)c1OC` [cirsimartin], affinity was put at a Ki of 3.16 µM.
On the same count and under the same terms, the figure for `COc1ccc2c(c1)C(=O)C(O)C(C#Cc1ccccc1)O2` (stereo unspecified) is 8.13 µM; for `COc1cc(OC)c2c(=O)c(OC)c(-c3cc(OC)c(OC)c(OC)c3)oc2c1` [3,5,7-Trimethoxy-2-(3,4,5-trimethoxy-phenyl)-chromen-4-one] it is 6.61 µM; for `COc1cc(O)c2c(c1)O[C@H](c1ccc(O)cc1)CC2=O` [5-hydroxy-2-(4-hydroxyphenyl)-7-methoxychroman-4-one] it is 3.39 µM.
The molecule `COC1(OC)Cc2oc(-c3ccc(O)cc3O)c(CC=C(C)C)c(=O)c2C(O)=C1/C=C/C(C)C` yielded a Ki of 4.57 µM.
Molecule `O=c1c(O)c(-c2ccccc2)oc2cc(O)cc(O)c12` [norizalpinin] had a Ki of 0.589 µM. Compared with the last molecule, the Ki is about 7.8-fold lower.
The same measure, in the same setting: in the case of `O=C1CC(c2ccccc2)Oc2ccccc21` (stereo unspecified) [2-phenyl-2,3-dihydro-4H-chromen-4-one] it was 16.2 µM; in that of `COc1cc(OC)c2c(=O)c(OC)c(-c3ccccc3)oc2c1` [3,5,7-Trimethoxy-2-phenyl-chromen-4-one], 0.831 µM; in that of `COc1ccc(-c2cc(=O)c3c(O)cc(C)cc3o2)cc1` [5-Hydroxy-2-(4-methoxy-phenyl)-7-methyl-chromen-4-one], 50.1 µM.
In turn, `Cc1ccc(-c2oc3ccc(Cl)cc3c(=O)c2Cl)c(C(C)C)c1` [NSC-74899] had a Ki of 0.562 µM.

A further experiment has as its target Adenosine receptor A2a (Rattus norvegicus, UniProt P30543). The experiment is described as follows: Ability to displace [3H]-CGS- 21680 binding from adenosine A2A receptor.
`O=c1c(Cl)c(-c2ccccc2)oc2ccccc12` [3-Chloro-2-phenyl-chromen-4-one] had a Ki of 25.1 µM. In other words, the double-digit micromolar range.
With `O=c1c(Cl)c(-c2ccccc2)oc2ccc(Cl)cc12` [NSC-74876], the inhibition constant (Ki) was 55 µM.
Still for that read-out and setting: the figure for `CC(=O)Oc1cc(OC(C)=O)c2c(c1)OC(c1ccccc1)C(OC(C)=O)C2=O` (stereo unspecified) is 56.2 µM; for `CCOc1ccc(-c2oc3cc(OCC)cc(OCC)c3c(=O)c2OCC)c(OCC)c1` [2-(2,4-Diethoxy-phenyl)-3,5,7-triethoxy-chromen-4-one] it is 26.3 µM.
`CCOc1c2ccoc2cc2oc(/C=C/C=C/c3ccccc3)cc(=O)c12` [4-Ethoxy-7-((1E,3E)-4-phenyl-buta-1,3-dienyl)-furo[3,2-g]chromen-5-one] showed an inhibition constant Ki of 166 µM.
With `COc1ccc(-c2cc(=O)c3ccc(O)cc3o2)cc1OC` [2-(3,4-dimethoxyphenyl)-7-hydroxy-4H-chromen-4-one], the affinity corresponds to a Ki of 34.7 µM.
The molecule `COc1c(O)cc2oc(-c3ccc(O)cc3)cc(=O)c2c1O` [5,7-dihydroxy-2-(4-hydroxyphenyl)-6-methoxy-4H-chromen-4-one] displayed a Ki of 7.59 µM. This Ki is about 4.6-fold lower than that of the molecule before.

The next experiment concerns the target T2, Adenosine receptor A1 (Rattus norvegicus, UniProt P25099).
T2 sequence (P25099 whole entry): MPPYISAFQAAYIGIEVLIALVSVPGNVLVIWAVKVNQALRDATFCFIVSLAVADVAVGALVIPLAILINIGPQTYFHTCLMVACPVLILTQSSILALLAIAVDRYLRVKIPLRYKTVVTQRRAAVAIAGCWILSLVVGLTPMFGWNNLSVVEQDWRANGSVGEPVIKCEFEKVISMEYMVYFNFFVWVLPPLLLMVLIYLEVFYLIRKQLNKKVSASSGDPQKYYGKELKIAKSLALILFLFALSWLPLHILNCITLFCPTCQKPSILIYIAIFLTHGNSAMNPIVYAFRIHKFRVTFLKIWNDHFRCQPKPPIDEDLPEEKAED
The experiment is described as follows: Ability to displace [3H]N6-phenylisopropyladenosine binding from adenosine A1 receptor.
In turn, `COc1ccc2c(c1)C(=O)C(O)C(C#Cc1ccccc1)O2` (stereo unspecified) yielded a Ki of 50.1 µM.
For the molecule `COc1cc(O)c2c(c1)O[C@H](c1ccc(O)cc1)CC2=O` [5-hydroxy-2-(4-hydroxyphenyl)-7-methoxychroman-4-one], the Ki is 8.13 µM. Against the preceding molecule, the Ki is about 6.2-fold lower.
